We go through 6 compounds from patent publication US10335418B2, “Methods and compositions for treating metabolic syndrome” (Topokine Therapeutics, Inc., priority 2011, dated 2019).

Data set [1] in a line: Weight gain and condition, 4-week repeat-dose trial in (db-/db-) mice. The data set is classed as in vivo. The method, then: A randomized, controlled, repeat-dose, 4-week trial was conducted on (db−/db−) mice, which are defective for the leptin receptor (Jackson Laboratories). These mice are genetically obese, dyslipidemic, and diabetic.
(§1) Methods: Mice were obtained from Jackson Laboratories and acclimated to the facility. At about 5 weeks of age, mice were prospectively randomized into groups and assigned to the treatment conditions shown in FIG. 1. Topical treatments were applied in a thin film to the right flank skin without occlusive dressings; subcutaneous injections were also administered to the right flank. […] They were housed in the same room, in 11 cages according to group, and fed ad libitum. Skin tissue was sampled and serum lipids tested on day 28. Tissue was fixed in formalin and stained with hematoxylin and eosin.

Data set [2] is described as follows: Serum lipids on day 28, (db-/db-) mice. It is filed as in vivo. The method, then: as §1
FIG. 5 charts the triglyceride and total cholesterol results (mg/dl) for the topical treatment conditions as follows: Group 1=C, 3=D, 4=E, 5=F, 6=G, 10=H, 11=I.

The test system of data set [3] is subcutaneous fat. The experiment in a line: Histologic sections of skin and subcutaneous fat, (db-/db-) mice. It is filed as in vivo. The following applies: for adipocytes and adipose layer, treated (right) flank / adipocytes and adipose layer, untreated (left) flank: day 28; for local versus systemic effect by histology: topical, concentration up to 0.3%. As to the method:
as §1
All sections are shown at the same magnification (scale bar at top right=640 microns). The surface of the skin is oriented toward the top and left of each panel. Arrows in each section denote the panniculus carnosus, an anatomic layer that separates the first layer of subdermal fat from deeper, subpannicular fat (separation artifact is commonly seen deep to the panniculus and is not an in vivo process).

Data set [4] can be described thus: Projected systemic dose, mouse (FIG. 12). The data set is classed as in vivo. As to conditions: topical, 100% serum bioavailability assumed. From the text: (§2) FIG. 12 compares various topical doses of latanoprost in mouse, rat, and human, with respect to projected systemic dose. All calculations assume once-daily dosing and 100% serum bioavailability. The derivation of each dose is set forth based on the animal body weight, drug concentration, and drug volume. Finally, doses are scaled allometrically for body surface area (mg/m^2/d), as is appropriate for most low-molecular-weight molecules.

For data set [5] the following is noted: obese adults, 120 mg three times daily, after two years; cited from earlier work.
A short description of data set [6]: Weight gain, food consumption and condition, 4-week study of latanoprost transdermal cream in ZDF rats. It is filed as in vivo. The following applies: for mean weight gain for days 0 to 29: 0.3 ml daily, vs vehicle. The method, then:
A controlled, repeat-dose, 4-week, dose-ranging study of latanoprost transdermal cream was conducted in Zucker Diabetic Fatty (ZDF) rats (ZDF-Lepr^fa/Crl), which are defective for the leptin receptor, obese, hyperlipidemic, and diabetic.
(§3) Methods: Male ZDF rats, approximately 8 weeks old, were obtained from Jackson Laboratories and acclimated to the facility. There were 3 animals per treatment arm. Test articles were applied in a thin film to the right flank without occlusive dressings, at 0.3 ml daily for 28 days. Rats were fed ad libitum and housed in the same room in 4 cages according to group. […] Food consumption was measured by residual weight of chow. Animals were fasted overnight prior to day 29, and Oral Glucose Tolerance Tests were conducted on day 29 (1 g glucose per kg body weight). Skin tissue and serum chemistries were collected at day 29.

Data set [7] deals with subcutaneous fat. The experiment in a line: Histologic sections of skin and subcutaneous fat, ZDF rats. It is filed as in vivo. The method, then:
as §3
All sections are shown at the same magnification (scale bar at top right=500 microns). The surface of the skin is oriented toward the top of each panel.

Data set [8] can be described thus: Serum lipid levels on day 29, ZDF rats. It is filed as in vivo. As to the method: as §3
A short description of data set [9]: Oral Glucose Tolerance Test on day 29, ZDF rats. The data set is classed as in vivo. The following applies: for oral glucose tolerance: day 29; for serum glucose AUC15-120 lower compared to vehicle-treated animals: 15 to 120 minutes post-glucose load. The method, then:
as §3

Data set [10] can be described thus: Minimum effective dose and projected systemic dose, rat (FIG. 12). The data set is classed as in vivo.
From the text: These effects were dose-dependent, and the minimum effective dose for these effects was deemed to be the 0.05% concentration.
as §2

The nature of data set [11]: Human ophthalmic dose and projected human transdermal dose (FIG. 12). The following applies: by comparison to minimum effective dose in the rat.
From the text: as §2

A short description of data set [12]: Clinical application: person with metabolic syndrome, latanoprost transdermal 0.7% gel (Example 7). It is filed as in vivo, human. The following applies: 2 ml once daily, 1 to 6 months. As to the method:
The following description exemplifies a clinical application of the invention to treat obesity, dyslipidemia, and type 2 diabetes mellitus in a person with metabolic syndrome.
A person is suffers from obesity, dyslipidemia, and type 2 diabetes. […] Their waist circumference is 42 inches. Their noninvasive blood pressure is 184/98. Their fasting serum glucose is […] and their glycated hemoglobin (hemoglobin A1C) is 8.1. Fasting serum lipids are as follows: triglycerides, 220 mg/dL; total cholesterol, 310 mg/dL, LDL 240 mg/dL, HDL, 35 mg/dL. Their physical exam is notable for prominent central (abdominal) obesity. In addition to medical therapy, the person's physician recommends a regimen of diet and exercise. After six months the person's weight, hemoglobin A1C, serum glucose, and serum lipids are unimproved. The physician prescribes systemic therapy with latanoprost, for example, a transdermal 0.7% gel in a metered-dose dispenser, with instructions to apply 2 ml metered dose once daily to the skin of the shoulders. After a period of time, for example from 1 to 6 months, the person's weight is reduced. Serum glucose, hemoglobin A1C, fasting serum LDL, and fasting serum triglycerides also diminish. Fasting serum HDL rises.

The conditions of data set [13]: in vivo; cited from earlier work.
The nature of data set [14]: Clinical application: person with dyslipidemia, oral extended-release tafluprost (Example 8). The data set is classed as in vivo, human. The following applies: oral extended-release 5 mg daily, 1 to 6 months. From the text:
The following description exemplifies a clinical application of the invention to reduce lipid concentrations in a patient with dyslipidemia and a history of coronary artery disease and myocardial infarction. A person with a history of obesity, hyperlipidemia, coronary artery disease, and myocardial infarction is found to have elevated serum triglycerides, total cholesterol, and low density lipoprotein, despite use of a statin. The person's physician prescribes an oral, extended-release formulation of tafluprost, for example, an extended-release tablet comprising 5 mg tafluprost, with instructions to take one capsule by mouth daily. After a period of time, for example from 1 to 6 months, the person's serum triglycerides, total cholesterol, and low density lipoprotein concentrations are reduced. Body weight is also seen to improve.

Setting [15] is: transdermal/topical to right flank skin, vs vehicle.
Where [16] appears, read: topical 0.5% and 0.05%, day 29, vs vehicle, not statistically significant.

On to `O=C(O)CCC/C=C\C[C@@H]1[C@@H](/C=C/[C@@H](O)CCc2ccccc2)[C@H](O)C[C@@H]1O` [BFA, 17-phenyl trinor prostaglandin F2α], for which the “mean weight gain for days 0 to 28” value in data set [1] (intraperitoneal) is “no significant effect on weight gain”; in data set [1] (subcutaneous, right flank) it was “no significant effect on weight gain”; in data set [1] (setting [15]), “reduced weight gain significantly and in a dose-dependent manner”. Moreover, the serum lipids result in [2] (intraperitoneal, day 28) was “no significant effect on serum lipids”; in data set [2] (subcutaneous, day 28), “no significant effect on serum lipids”. For the same compound, the serum triglycerides entry in data set [2] (transdermal 0.1% or 0.3%, unfasted, day 28, vs control) is on record as “significantly reduced”.
As to `CC(C)OC(=O)CCC/C=C\C[C@@H]1[C@@H](/C=C/[C@@H](O)CCc2ccccc2)[C@H](O)C[C@@H]1O` [BIE, 17-phenyl trinor prostaglandin F2α isopropyl ester], in data set [1] (subcutaneous, right flank), the “mean weight gain for days 0 to 28” value is “no significant effect on weight gain”. Besides, in [1] (transdermal), the “potency of transdermal BIE relative to transdermal BFA, for each effect (weight gain, serum lipids)” value is on record as “more potent”. The “mean weight gain for days 0 to 28” value in data set [1] (setting [15]) is “reduced weight gain significantly and in a dose-dependent manner”. For the same compound, in the data set with subcutaneous fat [3] (topical 0.3%), the “adipocytes deep to the panniculus” value is listed as “profound shrinkage of adipocytes deep to the panniculus”; the “adipocytes and adipose layer, treated (right) flank” value is “smaller adipocytes and thinner adipocyte layers”; the “adipocytes and adipose layer, untreated (left) flank” value is “smaller adipocytes and thinner adipocyte layers”. The “local versus systemic effect by histology” value in the data set with subcutaneous fat [3] is given as “indicative of a systemic effect”. The serum lipids entry in [2] (subcutaneous, day 28) is on record as “no significant effect on serum lipids”. Also, the serum total cholesterol entry in data set [2] (transdermal 0.1%, unfasted, day 28) is “significantly lower”. The “systemic dose at which serum lipids and obesity responded” value in data set [4] is 10 mg/m^2/d.
For `CCCCCCCCCCC[C@@H](C[C@@H]1OC(=O)[C@H]1CCCCCC)OC(=O)[C@H](CC(C)C)NC=O` [Orlistat], in data set [5], the “loss of baseline body weight” value is reported as 8.8%; the “serum lipids and serum glucose” value is given as “not accompanied by any absolute improvement in serum lipids or serum glucose”.
For `CCNC(=O)CCC/C=C\C[C@@H]1[C@@H](/C=C/[C@@H](O)CCc2ccccc2)[C@H](O)C[C@@H]1O` [bimatoprost, 17-phenyl trinor prostaglandin F2α ethyl amide], in the data set with subcutaneous fat [3] (topical 0.3%), the “adipocytes and adipose layer, treated (right) flank” value is “smaller adipocytes and a thinner adipose layer”; the “adipocytes and adipose layer, untreated (left) flank” value is recorded as “resembled that of a vehicle-treated animal”. The “local versus systemic effect by histology” value in the data set on subcutaneous fat [3] is reported as “local effect, but not a systemic effect”. Besides, in data set [2] (topical, day 28), the serum lipids result is on record as “no significant effect on serum lipids”.
For `CC(C)OC(=O)CCC/C=C\C[C@@H]1[C@@H](CC[C@@H](O)CCc2ccccc2)[C@H](O)C[C@@H]1O` [latanoprost, 17-phenyl-13,14-dihydro trinor prostaglandin F2α isopropyl ester], in [6] (topical 0.005%), the “mean weight gain for days 0 to 29” value is “dose-dependent reductions in weight gain”. In data set [6] (topical 0.005-0.5%, 28 days), the “daily observations and skin condition” value was “unremarkable”. Besides, in [6] (topical 0.05%), the “mean weight gain for days 0 to 29” value is recorded as “dose-dependent reductions in weight gain, which were statistically significant”. The “mean weight gain for days 0 to 29” value in data set [6] (topical 0.5%) is “dose-dependent reductions in weight gain, which were statistically significant”. In addition, in the data set on subcutaneous fat [7] (topical 0.005%), the “adipocytes and adipose layer, treated (right) flank” value was “fewer and smaller adipocytes, and a thinner adipose layer”; the “adipocytes and adipose layer, untreated (left) flank” value is “resembled that of a vehicle-treated animal”; the “local versus systemic effect by histology” value is on record as “local effect, but not a systemic effect”. In the data set on subcutaneous fat [7] (topical 0.5%), the “adipocytes, adipose layer and dermis, treated flank” value was “fewer and smaller adipocytes, and thinner adipose layer and dermis”; the “adipocytes, adipose layer and dermis, untreated flank” value is “fewer and smaller adipocytes, and thinner adipose layer and dermis”; the “local versus systemic effect by histology” value is “indicative of a systemic effect”. Moreover, the “serum lipid benefits (triglycerides, LDL, HDL, HDL:LDL ratio)” value in data set [8] (topical 0.005%, day 29) is recorded as “absent”. Moreover, the “HDL:LDL ratio” value in [8] (topical 0.5% and 0.05%, day 29, vs vehicle, 0.5% one-sided p<0.05) was “dose-dependent increases”. Moreover, in [8] (setting [16]), the “serum HDL” value is “dose-dependent increases”, the “serum LDL” value is listed as “dose-dependent reductions” and the serum triglycerides result is “dose-dependent reductions”. Besides, the oral glucose tolerance result in [9] (topical 0.005%) is given as “no effect on oral glucose tolerance”. The “serum glucose AUC15-120 lower compared to vehicle-treated animals” value in data set [9] (topical 0.05%) is given as 12%. In [9] (topical 0.5% and 0.05%), the oral glucose tolerance entry is recorded as “dose-dependent improvements in oral glucose tolerance”. The “serum glucose AUC15-120 lower compared to vehicle-treated animals” value in data set [9] (topical 0.5%) was 26%. In data set [10] (rat, equivalent of 0.05%), the “minimum effective dose of topical latanoprost, as concentration” value came to 0.5 mg/mL. For the same compound, in [10] (rat, once-daily dosing, 100% serum bioavailability assumed, scaled for body surface area), the “systemic dose corresponding to minimum effective topical dose” value came to 3.6 mg/m^2/d. For the same compound, the “minimum effective dose (concentration) for weight gain, serum lipids, glucose tolerance” value in [10] (transdermal, ZDF rat) is recorded as 0.05%. Moreover, in data set [11], the “predicted human transdermal dose sufficient for systemic benefit (serum lipids, diabetic condition, obesity)” value is “about 7 mg per day”. In data set [12], the “fasting serum HDL” value was “rises”; the “serum glucose, hemoglobin A1C, fasting serum LDL, fasting serum triglycerides” value was “diminish”; the weight result was “reduced”. Moreover, in [13], the serum elimination half-life result is “about 17 minutes”.
As to `CC(C)OC(=O)CCC/C=C\C[C@@H]1[C@@H](/C=C/C(F)(F)COc2ccccc2)[C@H](O)C[C@@H]1O` [tafluprost], in [14], the body weight entry is reported as “improve” and the “serum triglycerides, total cholesterol, low density lipoprotein concentrations” value is recorded as “reduced”.
